{"source": "patent US20130096067A1", "about": "“DROSOPHILA TUMOR STEM CELL MODEL AND USES THEREOF” (priority 2011, published 2013)", "tested_on": "Raf-1^gof intestinal tumors", "conditions": "for Log2 (fold) of luciferase activity relative to DMSO controls / Fold (luciferase activity relative to DMSO controls): ICCB compounds fed in vials to flies with one-day old Raf-1^gof tumors", "key": {"[1]": {"conditions": "assessed three days later, averaged from multiple wells"}, "[2]": {"conditions": "screen of 480 ICCB compounds in vials, compounds fed to flies with one-day old Raf-1^gof tumors, assessed three days later, esg-Gal4 luciferase"}, "[3]": {"conditions": "screen of 480 ICCB compounds in vials, compounds fed to flies with one-day old Raf-1^gof tumors, assessed three days later, esg-Gal4 luciferase, averaged from multiple wells"}}, "note": "Like-named read-outs stand apart in the source and are kept apart here. For Fold (luciferase activity relative to DMSO controls) in this document: test concentration or dose not given here. For Fold (luciferase activity, fold difference relative to DMSO controls) in this document: test concentration or dose not given here. For Log2 (fold) (luciferase activity, log2 of the fold difference relative to DMSO controls) in this document: test concentration or dose not given here. For Log2 (fold) of luciferase activity relative to DMSO controls in this document: test concentration or dose not given here.", "data": [{"molecule": "CCCCC/C=C\\C\\C=C/C=C/C=C/[C@@H](SC[C@H](NC(=O)CC[C@H](N)C(=O)O)C(=O)NCC(=O)O)[C@@H](O)CCCC(=O)O", "note": "[LEUKOTRIENE C4]", "values": [{"measurement": "Log2 (fold) of luciferase activity relative to DMSO controls", "setting": "assessed three days later", "result": 0.114}, {"measurement": "Fold (luciferase activity relative to DMSO controls)", "setting": "[1]", "result": 1.082, "unit": "fold"}]}, {"molecule": "CCCCC/C=C\\C\\C=C/C=C/C=C/[C@@H](SC[C@H](N)C(=O)NCC(=O)O)[C@@H](O)CCCC(=O)O", "note": "[LEUKOTRIENE D4]", "values": [{"measurement": "Log2 (fold) of luciferase activity relative to DMSO controls", "setting": "assessed three days later", "result": 0.234}, {"measurement": "Fold (luciferase activity relative to DMSO controls)", "setting": "[1]", "result": 1.176, "unit": "fold"}]}, {"molecule": "CCCCC/C=C\\C\\C=C/C=C/C=C/[C@@H](SC[C@H](N)C(=O)O)[C@@H](O)CCCC(=O)O", "note": "[LEUKOTRIENE E4]", "values": [{"measurement": "Log2 (fold) (luciferase activity, log2 of the fold difference relative to DMSO controls)", "setting": "[2]", "result": "−0.439"}, {"measurement": "Fold (luciferase activity, fold difference relative to DMSO controls)", "setting": "[3]", "result": 0.737}]}, {"molecule": "C/C(O)=C(\\C#N)C(=O)Nc1cc(Br)ccc1Br", "note": "[LFM-A13]", "values": [{"measurement": "Log2 (fold) (luciferase activity, log2 of the fold difference relative to DMSO controls)", "setting": "[2]", "result": "−0.417"}, {"measurement": "Fold (luciferase activity, fold difference relative to DMSO controls)", "setting": "[3]", "result": 0.749}]}, {"molecule": "CCN(CC)CC(=O)Nc1c(C)cccc1C", "note": "[LIDOCAINE]", "values": [{"measurement": "Log2 (fold) of luciferase activity relative to DMSO controls", "setting": "assessed three days later", "result": 0.049}, {"measurement": "Fold (luciferase activity relative to DMSO controls)", "setting": "[1]", "result": 1.035, "unit": "fold"}]}, {"molecule": "CCCCC/C=C\\C/C=C\\CCCCCCCC(N)=O", "note": "[LINOLEAMIDE]", "values": [{"measurement": "Log2 (fold) of luciferase activity relative to DMSO controls", "setting": "assessed three days later", "result": "−0.027"}, {"measurement": "Fold (luciferase activity relative to DMSO controls)", "setting": "[1]", "result": 0.981, "unit": "fold"}]}, {"molecule": "CCCCC/C=C\\C/C=C\\CCCCCCCC(=O)O", "note": "[LINOLEIC ACID]", "values": [{"measurement": "Log2 (fold) of luciferase activity relative to DMSO controls", "setting": "assessed three days later", "result": 0.024}, {"measurement": "Fold (luciferase activity relative to DMSO controls)", "setting": "[1]", "result": 1.017, "unit": "fold"}]}, {"molecule": "CC/C=C\\C/C=C\\C/C=C\\CCCCCCCC(=O)O", "note": "[LINOLENIC ACID (18:3 n-3)]", "values": [{"measurement": "Log2 (fold) of luciferase activity relative to DMSO controls", "setting": "assessed three days later", "result": 0.096}, {"measurement": "Fold (luciferase activity relative to DMSO controls)", "setting": "[1]", "result": 1.069, "unit": "fold"}]}, {"molecule": "CCCCC[C@H](O)/C=C/C=C\\C=C\\C=C\\[C@@H](O)[C@@H](O)CCCC(=O)O", "note": "[LIPOXIN A4]", "values": [{"measurement": "Log2 (fold) of luciferase activity relative to DMSO controls", "setting": "assessed three days later", "result": 0.046}, {"measurement": "Fold (luciferase activity relative to DMSO controls)", "setting": "[1]", "result": 1.033, "unit": "fold"}]}, {"molecule": "CN(C)C(=O)C(CCN1CCC(O)(c2ccc(Cl)cc2)CC1)(c1ccccc1)c1ccccc1", "note": "[LOPERAMIDE]", "values": [{"measurement": "Fold (luciferase activity, fold difference relative to DMSO controls)", "setting": "in vivo", "result": 0.786}, {"measurement": "Log2 (fold) (luciferase activity, log2 of the fold difference relative to DMSO controls)", "setting": "in vivo", "result": "−0.347"}]}, {"molecule": "CCCCCCCCCCCCCCCCOC[C@@H](O)COP(=O)([O-])OCC[N+](C)(C)C", "note": "[LYSO-PAF C16]", "values": [{"measurement": "Log2 (fold) of luciferase activity relative to DMSO controls", "setting": "assessed three days later", "result": "−0.087"}, {"measurement": "Fold (luciferase activity relative to DMSO controls)", "setting": "[1]", "result": 0.941, "unit": "fold"}]}, {"molecule": "C/C1=C/C(=O)O[C@@H]2C[C@@H](CC[C@H](C)/C=C\\CC1)O[C@@](O)([C@@H]1CSC(=O)N1)C2", "note": "[Latrunculin B, reference compound]", "values": [{"measurement": "Fold", "setting": "Table 3 summary of hits, Screen ICCB, luciferase relative to DMSO, fed three consecutive days in vials", "result": 0.478, "unit": "fold"}, {"measurement": "Log2 (fold) (luciferase activity, log2 of the fold difference relative to DMSO controls)", "setting": "[2]", "result": "−1.064"}, {"measurement": "Fold (luciferase activity, fold difference relative to DMSO controls)", "setting": "[3]", "result": 0.478}]}, {"molecule": "O=C(O)c1cc(N(Cc2ccccc2O)Cc2cc(O)ccc2O)ccc1O", "note": "[Lavendustin A]", "values": [{"measurement": "Log2 (fold) (luciferase activity, log2 of the fold difference relative to DMSO controls)", "setting": "[2]", "result": "−0.297"}, {"measurement": "Fold (luciferase activity, fold difference relative to DMSO controls)", "setting": "[3]", "result": 0.814}]}, {"molecule": "CC(=O)N[C@@H](CC(C)C)C(=O)N[C@@H](CC(C)C)C(=O)N[C@H](C=O)CCCNC(=N)N", "note": "[Leupeptin]", "values": [{"measurement": "Log2 (fold) of luciferase activity relative to DMSO controls", "setting": "assessed three days later", "result": "−0.038"}, {"measurement": "Fold (luciferase activity relative to DMSO controls)", "setting": "[1]", "result": 0.974, "unit": "fold"}]}, {"molecule": "CCCCCCCCCCCCCC(=O)N[C@H](C)[C@@H](O)c1ccccc1", "note": "[MAPP, D-erythro]", "values": [{"measurement": "Log2 (fold) (luciferase activity, log2 of the fold difference relative to DMSO controls)", "setting": "[2]", "result": "−0.266"}, {"measurement": "Fold (luciferase activity, fold difference relative to DMSO controls)", "setting": "[3]", "result": 0.832}]}, {"molecule": "CCCCCCCCCCCCCC(=O)N[C@@H](C)[C@H](O)c1ccccc1", "note": "[MAPP, L-erythro]", "values": [{"measurement": "Log2 (fold) of luciferase activity relative to DMSO controls", "setting": "assessed three days later", "result": 0.104}, {"measurement": "Fold (luciferase activity relative to DMSO controls)", "setting": "[1]", "result": 1.075, "unit": "fold"}]}, {"molecule": "Clc1ccc2ncnc(NCc3ccc4c(c3)OCO4)c2c1", "note": "[MBCQ]", "values": [{"measurement": "Log2 (fold) of luciferase activity relative to DMSO controls", "setting": "assessed three days later", "result": 0.195}, {"measurement": "Fold (luciferase activity relative to DMSO controls)", "setting": "[1]", "result": 1.145, "unit": "fold"}]}, {"molecule": "CC1=NN(c2ccccc2)C(=O)C1", "note": "[MCI-186]", "values": [{"measurement": "Log2 (fold) of luciferase activity relative to DMSO controls", "setting": "assessed three days later", "result": "−0.200"}, {"measurement": "Fold (luciferase activity relative to DMSO controls)", "setting": "[1]", "result": 0.871, "unit": "fold"}]}, {"molecule": "CCCCCCCC/C=C\\C/C=C\\C/C=C\\CCCC(=O)O", "note": "[MEAD ACID (20:3 n-9)]", "values": [{"measurement": "Log2 (fold) (luciferase activity, log2 of the fold difference relative to DMSO controls)", "setting": "[2]", "result": "−0.279"}, {"measurement": "Fold (luciferase activity, fold difference relative to DMSO controls)", "setting": "[3]", "result": 0.824}]}]}
